How the values were obtained:
[1] = biological target: T1, peripheral type CCK receptors in rat pancreas (Rattus norvegicus, UniProt P30551); test: Binding to peripheral type CCK receptors in rat pancreas (3H-L-364,718); settings: for inhibition at 10 µM: read-out: Pancreas Percent Inhibition; for IC50: rat pancreas
T1 construct: Pancreas was obtained from male Sprague-Dawley rats; from tissue; host or cells: pancreas membranes of male Sprague-Dawley rats
T1 sequence (P30551 1-444): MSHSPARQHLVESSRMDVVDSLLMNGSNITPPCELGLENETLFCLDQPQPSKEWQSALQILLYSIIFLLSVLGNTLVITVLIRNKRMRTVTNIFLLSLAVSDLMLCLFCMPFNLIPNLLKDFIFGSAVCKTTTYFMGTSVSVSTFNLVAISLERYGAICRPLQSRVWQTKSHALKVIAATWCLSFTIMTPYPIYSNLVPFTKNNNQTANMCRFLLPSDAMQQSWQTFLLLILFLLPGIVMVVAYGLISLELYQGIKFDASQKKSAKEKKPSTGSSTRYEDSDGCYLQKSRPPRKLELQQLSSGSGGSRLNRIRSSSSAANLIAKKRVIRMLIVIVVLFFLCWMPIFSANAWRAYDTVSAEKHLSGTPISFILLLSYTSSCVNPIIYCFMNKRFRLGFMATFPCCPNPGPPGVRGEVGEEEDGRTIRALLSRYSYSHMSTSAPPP
Description: Binding to peripheral type CCK receptors in rat pancreas was done according to the method of Chang et al. (Mol. Pharmacol. 30: 212-217, 1986) using ^3 H-L364, 718. Pancreas was obtained from male Sprague-Dawley rats, 150-200 g, after decapitation, and dissected free from adipose and connective tissue. The tissue was homogenized in 30 volumes of 50 mM Tris buffer, pH 7.4 and centrifuged at 40,000 g for 10 min. The tissue pellet was washed by resuspension and centrifugation as described above. The final pellet was suspended in 500 volumes of assay buffer (50 mM Tris buffer, pH 7.4, 5 mM MgCl2, 0.14 mg/ml bacitracin, and 5 mM dithiothreitol) to give a protein concentration of 30-60 μg/200 μl . Reagent volumes for the assay were the same as those used for CCK binding to brain membranes. Tritium labeled L-364,718 (Dupont NEN, NET-971) was used as the ligand at a concentration of 0.4-0.6 nM. The samples were incubated 1 hour at room temperature and then filtered as described for the CCK-brain receptor. Scintillation cocktail was added to the filters which were counted for radioactivity using a Micromedic Taurus automatic liquid scintillation counter.
Compound samples were prepared and IC-50 values were determined as described for the CCK-brain experiments. Non-specific binding was that amount left bound to the filters after adding 100 nM L-364,718.

brain CCK receptor = biological target: T2, brain CCK receptor (Mus musculus, UniProt P56481); test: CCK receptor binding, mouse brain membranes (125I-CCK-8 sulfate); settings: for IC50: mouse brain membranes, read-out: Brain IC50; for inhibition at 1 µM / inhibition at 10 µM: read-out: Brain Percent Inhibition
T2 construct: from tissue; host or cells: forebrain membranes of male CF-1 mice
T2 sequence (P56481 1-453): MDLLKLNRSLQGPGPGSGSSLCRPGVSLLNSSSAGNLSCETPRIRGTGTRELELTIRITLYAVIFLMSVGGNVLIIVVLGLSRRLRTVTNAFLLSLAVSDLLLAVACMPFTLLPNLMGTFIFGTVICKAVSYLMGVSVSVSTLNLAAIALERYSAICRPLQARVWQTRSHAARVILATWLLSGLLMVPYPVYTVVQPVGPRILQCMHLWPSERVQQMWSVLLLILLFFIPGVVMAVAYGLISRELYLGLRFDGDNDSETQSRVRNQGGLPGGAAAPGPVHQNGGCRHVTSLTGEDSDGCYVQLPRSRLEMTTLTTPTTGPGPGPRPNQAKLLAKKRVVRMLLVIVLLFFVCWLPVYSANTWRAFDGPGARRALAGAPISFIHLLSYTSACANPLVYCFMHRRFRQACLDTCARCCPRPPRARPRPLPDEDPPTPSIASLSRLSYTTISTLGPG
Description: Brain CCK receptor binding was performed using mouse brain membranes according to the method of Chang and Lotti (Proc. Natl. Acad. Sci. 83: 4923-4926, 1986). Male CF-1 mice, 23-25 g were sacrificed by cervical dislocation, the forebrain removed and placed in ice cold 50 mM Tris buffer, pH 7.4. The tissue was homogenized in 100 volumes of the Tris buffer with a Brinkman Polytron or Tekmar Tissumizer and then centrifuged at 40,000 g for 10 min. Pellets were resuspended in Tris buffer, centrifuged as above and then resuspended in 100 volumes of assay buffer, pH 6.5 (20 mM N-2-hydroxyethyl-piperazine-N'-2-ethane sulfonic acid (HEPES), 1 mM ethylene glycol his (2-aminoethyl ether-N,N,N',N'-tetraacetic acid) (EGTA), 5 mM MgCl2, 130 mM NaCl, and 0.25 mg/ml bacitracin). The binding assay consisted of 50 μL of compound (or buffer for total binding), 50 μL of ^125 I-CCK-8 sulfate (20 pM) (Amersham IM- 159), 200 μL of assay buffer and 200 μL of homogenate (80-120 μg protein). The samples were incubated at room temperature (25°) for 2 hours, and they were then filtered through GF/B glass fiber filters (soaked in wash buffer for 2 hours before use) using a 48 well Brandel cell harvester designed for receptor binding. The filters were washed twice with 3 ml of 50 mM Tris buffer, pH 7.4, containing 0.01% BSA and then counted for radioactivity in plastic tubes with a Micromedic 10/600 automatic gamma counter.
Compounds were dissolved in dimethyl sulfoxide (DMSO) at a concentration of 10 mM and then further diluted with assay buffer. The concentration of DMSO in the incubation was 0.1% or less and had no effect on the assay at that level. IC-50 values of displacement curves were determined using 7 concentrations of compound and were calculated using the ALLFIT computer program of DeLean, Munson and Rodbard (Am. J. Physiol. 235: E97-E102, 1978). Non-specific binding was determined as the displacement of the radioligand by 100 nM CCK-8 sulfate.

SMILES | inhibition at 10 µM [1] [%] | IC50 (brain CCK receptor) [nM] | inhibition at 10 µM (brain CCK receptor) [%] | also measured
C[C@@H](NC(=O)N1NC(=O)C(c2ccccc2)C1c1ccccc1)c1ccccc1 (stereo partly drawn) [Example 102] | 11 | 4700 |  | 
O=C1NN(C(=O)Nc2ccc(Br)cc2)C(Cc2ccccc2)C1c1ccccc1 (stereo not drawn) [Example 72] | 22 |  | 88 | 
O=C(O)COC1=NN(C(=O)Nc2ccc(Br)cc2)[C@@H](c2ccccc2)[C@@H]1c1ccccc1 (relative stereo) [Example 12 (O--), 1-[(4-bromophenyl)aminocarbonyl]-3-carboxymethoxy-4,5-diphenyl-2-pyrazoline] | 64 | 340 |  | 
O=C1NN(C(=O)NCCc2ccc(Cl)cc2)[C@@H](c2ccccc2)[C@@H]1c1ccccc1 (relative stereo) [Example 107] | 61 |  | 86 | 
O=C1NN(c2nc3c(Cl)c(Cl)ccc3s2)[C@@H](c2ccccc2)[C@@H]1c1ccccc1 (relative stereo) [Example 86] | 58 |  |  | 
O=C1NN(c2nc3ccc(Br)cc3s2)[C@@H](c2ccccc2)[C@@H]1c1ccccc1 (relative stereo) [Example 85] | 19 |  | 78 | 
C[C@H](NC(=O)N1NC(=O)C(c2ccccc2)C1c1ccccc1)c1ccccc1 (stereo partly drawn) [Example 101] | 7 | 1300 |  | 
O=C1NN(C(=O)Nc2ccc(C3CCCCC3)cc2)[C@@H](c2ccccc2)[C@@H]1c1ccccc1 (relative stereo) [Example 31] | 71 |  |  | inhibition at 1 µM (brain CCK receptor): 54%
CN1C(=O)[C@H](c2ccccc2)[C@@H](c2ccccc2)N1C(=O)Nc1ccc(C(F)(F)F)cc1 (relative stereo) [Example 67] |  |  | 46 | 
O=C1NN(C(=O)NCc2ccccc2)[C@@H](c2ccccc2)[C@@H]1c1ccccc1 (relative stereo) [Example 96] | 13 |  | 42 | 
O=C(Nc1cccc(C(F)(F)F)c1)N1N[C@@H](c2ccccc2)[C@H](c2ccccc2)C1=O (relative stereo) [Example 82] |  |  | 23 | 
C[C@@H](NC(=O)N1NC(=O)C(c2ccccc2)C1c1ccccc1)c1cccc2ccccc12 (stereo partly drawn) [Example 104] | 47 | 900 |  | 
CC(C)Oc1ccc(NC(=O)N2NC(=O)[C@@H](c3ccccc3)[C@@H]2c2ccccc2)cc1 (relative stereo) [Example 35] | 48 | 390 |  | 
O=C1NN(C(=O)N2CCc3ccccc3C2)[C@@H](c2ccccc2)[C@@H]1c1ccccc1 (relative stereo) [Example 109] | 11 | 6000 |  | 
O=C1NN(C(=S)Nc2ccc(Cl)c(C(F)(F)F)c2)[C@@H](c2ccccc2)[C@@H]1c1ccccc1 (single isomer, unassigned) [Example 143, (-)-trans-1-[(4-Chloro-3-trifluoromethylphenyl)-aminothiocarbonyl]-4,5-diphenyl-3-pyrazolidinone] |  |  |  | IC50 [1]: 810 nM
CN(C(=O)N1NC(=O)[C@@H](c2ccccc2)[C@@H]1c1ccccc1)c1ccc(Cl)cc1 (relative stereo) [Example 19] | 36 |  | 68 | 
CN(Cc1ccccc1)C(=O)N1NC(=O)[C@@H](c2ccccc2)[C@@H]1c1ccccc1 (relative stereo) [Example 97] |  |  | 42 | 
O=C1NN(C(=O)Nc2ccc3ccccc3c2)[C@@H](c2ccccc2)[C@@H]1c1ccccc1 (relative stereo) [Example 91] | 94 |  |  | 
O=C1NN(C(=S)Nc2cnc3ccccc3c2)[C@@H](c2ccccc2)[C@@H]1c1ccccc1 (relative stereo) [Example 137] |  |  |  | IC50 [1]: 32 nM
O=C1NN(C(=S)NCc2ccc(Cl)c(Cl)c2)[C@@H](c2ccccc2)[C@@H]1c1ccccc1 (relative stereo) [Example 138] |  |  |  | IC50 [1]: 69 nM
COC1=NN(C(=O)Nc2ccc(C(F)(F)F)cc2)[C@@H](c2ccccc2)[C@@H]1c1ccccc1 (relative stereo) [Example 13, 1-[(4-Trifluoromethylphenyl)aminocarbonyl]-3-methoxy-4,5diphenyl-2-pyrazoline] |  |  | 67 | 
CCCCNC(=O)N1NC(=O)[C@H](c2ccccc2)[C@H]1c1ccccc1 (relative stereo) [Example 94] |  |  | 50 | 
O=C1NN(C(=S)Nc2ccc(Cl)c(C(F)(F)F)c2)[C@@H](c2ccccc2)[C@@H]1c1ccccc1 (single isomer, unassigned) [Example 142, (+)-trans-1-[(4-Chloro-3-trifluoromethylphenyl)-aminothiocarbonyl]-4,5-diphenyl-3-pyrazolidinone] |  |  |  | IC50 [1]: 17 nM

The next lines start with results.

inhibition at 10 µM [1] [%] | IC50 (brain CCK receptor) [nM] | inhibition at 10 µM (brain CCK receptor) [%] | SMILES | also measured
85 |  |  | O=C1NN(C(=O)Nc2cc(C(F)(F)F)cc(C(F)(F)F)c2)[C@H](c2ccccc2)[C@H]1c1ccccc1 (relative stereo) [Example 58] | inhibition at 1 µM (brain CCK receptor): 10%
37 | 2200 |  | O=C1NN(C(=S)Nc2ccc(C(F)(F)F)cc2)[C@H](c2ccccc2)[C@H]1c1ccccc1 (relative stereo) [Example 62] | 
2 |  | 34 | O=C(Nc1ccc(Cl)c(C(F)(F)F)c1)N1N[C@@H](c2ccccc2)[C@H](c2ccccc2)C1=O (relative stereo) [Example 8, 2-[(4-Chloro-3-trifluoromethylphenyl)amino-carbonyl]-4,5-diphenyl-3-pyrazolidinone] | 
21 |  | 57 | Cc1cccc(NC(=O)N2NC(=O)[C@H](c3ccccc3)[C@H]2c2ccccc2)c1 (relative stereo) [Example 41] | 
40 |  | 60 | O=C1NN(C(=O)c2ccc(Cl)c(Cl)c2)[C@H](c2ccccc2)[C@H]1c1ccccc1 (relative stereo) [Example 75] | 
49 | 1800 |  | O=C1NN(C(=O)Cc2ccc(Cl)c(Cl)c2)[C@@H](c2ccccc2)[C@@H]1c1ccccc1 (relative stereo) [Example 78] | 
 | 370 |  | O=C1NN(C(=O)Nc2ccc(Br)cc2)[C@@H](c2ccccc2)[C@@H]1c1ccccc1 (single isomer, unassigned) [Example 140, (-)-trans-1-[(4-Bromophenyl)aminocarbonyl]-4,5-diphenyl-3-pyrazolidinone] | 
